The term IC50 denotes the point on the concentration scale where inhibition reaches its midpoint.

In the test the target is Ubiquitin carboxyl-terminal hydrolase 28 (Homo sapiens) (UniProt Q96RU2). Put plainly: Ubiquitin-specific peptidase 28 DUB inhibitors, biochemical concentration-dependence assay, validation of primary screening hits (AID 1645866). To be noted: purified USP28, ubiquitin-rhodamine fluorescence, 30 min.

Calls of active or inactive are those of the source.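 How the source made its calls: active means in confirmatory dose-response testing, peak deubiquitinase inhibition of 30% or more; inactive means the rest.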

Chain of Ubiquitin carboxyl-terminal hydrolase 28 (Homo sapiens) (Q96RU2 whole entry, looked up): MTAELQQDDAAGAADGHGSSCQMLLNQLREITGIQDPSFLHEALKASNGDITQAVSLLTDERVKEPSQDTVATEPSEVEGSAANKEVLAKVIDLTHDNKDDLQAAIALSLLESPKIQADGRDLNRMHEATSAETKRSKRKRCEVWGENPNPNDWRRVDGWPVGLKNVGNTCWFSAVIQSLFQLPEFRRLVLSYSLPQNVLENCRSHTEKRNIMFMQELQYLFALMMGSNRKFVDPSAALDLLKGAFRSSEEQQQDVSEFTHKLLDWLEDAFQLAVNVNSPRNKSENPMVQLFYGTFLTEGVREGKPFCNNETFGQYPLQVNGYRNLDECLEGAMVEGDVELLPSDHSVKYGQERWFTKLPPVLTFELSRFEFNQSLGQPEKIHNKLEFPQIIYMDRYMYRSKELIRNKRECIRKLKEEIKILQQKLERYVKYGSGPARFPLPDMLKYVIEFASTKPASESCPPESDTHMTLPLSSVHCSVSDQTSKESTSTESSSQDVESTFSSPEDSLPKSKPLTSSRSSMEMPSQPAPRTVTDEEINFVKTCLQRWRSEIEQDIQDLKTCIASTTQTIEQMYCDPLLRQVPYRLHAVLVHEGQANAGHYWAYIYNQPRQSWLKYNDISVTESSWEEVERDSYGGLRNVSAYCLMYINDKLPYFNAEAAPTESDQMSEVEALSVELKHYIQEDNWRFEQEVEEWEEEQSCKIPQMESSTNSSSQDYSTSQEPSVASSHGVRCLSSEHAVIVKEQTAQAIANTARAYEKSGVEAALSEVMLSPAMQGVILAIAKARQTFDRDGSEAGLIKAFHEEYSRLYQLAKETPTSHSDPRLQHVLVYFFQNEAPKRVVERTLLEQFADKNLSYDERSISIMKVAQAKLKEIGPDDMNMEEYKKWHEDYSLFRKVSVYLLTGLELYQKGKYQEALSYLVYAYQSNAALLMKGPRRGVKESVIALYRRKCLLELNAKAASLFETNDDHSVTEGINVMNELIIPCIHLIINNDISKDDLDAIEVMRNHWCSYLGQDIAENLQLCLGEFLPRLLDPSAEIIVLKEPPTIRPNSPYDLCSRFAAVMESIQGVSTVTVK

As to `Cc1oc(C2CC2)cc1C(=O)N1CCC2(CC1)CC1(CO2)Nc2ccccc2-n2cccc21` (stereo unspecified), the IC50 was > 50 µM (inactive). Then `COc1ccc(NS(=O)(=O)c2cc(NC(=O)CCc3nc4ccccc4s3)ccc2C)cc1`, with 24.1 µM; and `O=C(NC1CCN(Cc2ccccc2)CC1)c1[nH]nc2c1COc1ccccc1-2`, with 6.98 µM. Then `O=C(COC(=O)CCc1ccc(S(=O)(=O)N2CCOCC2)cc1)Nc1ccc2c(c1)OCCO2`, with 7.22 µM; and `COc1ccc(CCC(=O)Nc2ccc3c(c2)Sc2ncccc2C(=O)N3C)cc1`, with 41 µM; and `O=C(Cc1noc2ccccc12)N1CCN(c2ccc([N+](=O)[O-])cc2)CC1`, with > 50 µM (inactive). With `CCN(CC(=O)Nc1cc(C)on1)c1cccc2ccccc12` the figure was > 50 µM (inactive); with `CC(C)c1cc2c(c(O)c1O)[C@@]13CCCC(C)(C)[C@@H]1C[C@@H]2OC3=O`, 23.9 µM. Turning to `CC(=O)c1ccc(NC(=O)CSc2nc(-c3ccccc3)nc3c2COC(C)(C)C3)cc1`, the IC50 is 4.07 µM. As for `Cc1ccc2c(=O)c(C(=O)Nc3ccccc3)cn(CC(=O)NC3CCCCC3)c2n1`, the IC50 was > 50 µM (inactive).

Consider `Cc1cn[nH]c1C1COCCN1C(=O)c1ccc2ncccc2c1` (stereo unspecified), for which the IC50 is > 50 µM (inactive).

On to `Cc1ccc(-c2nc(Cn3cnc4ccccc4c3=O)cs2)cc1`, for which the IC50 was 4.97 µM.

For `O=C(CSc1cn(Cc2ccccc2)c2ccccc12)Nc1ccc2c(c1)OCCO2`, the IC50 was 17.2 µM. `CCCCn1c(=O)c(CCC(=O)OCC(=O)Nc2ccc3c(c2)OCCO3)nc2ccccc21`: the IC50 was 3.65 µM. As to `Cn1cc2cccc(NC(=O)c3ccc(F)cc3)c2n1`, the IC50 is > 50 µM (inactive). Regarding `O=C(Cc1nnc2c(-c3nc(C4CC4)no3)cccn12)Nc1ccccc1`, the IC50 is 16.5 µM. On to `NS(=O)(=O)c1cccc(NS(=O)(=O)c2ccc(/C=C/C(=O)OCC(=O)c3ccc(Br)cc3)cc2)c1`, for which the IC50 is > 50 µM (inactive). Take `CC(C)c1nc2sc3c(NCc4ccco4)ncnc3c2c2c1CCC2`: the IC50 is 3.08 µM. Then `COc1ccccc1NC(=O)CSC1=NC2(CCCCC2)Nc2ccccc21`, with > 50 µM (inactive); and `COc1ccc(CN(C(=O)c2cc(-c3ccc(C)cc3)on2)C2CCS(=O)(=O)C2)cc1` (stereo unspecified), with 38 µM.

Turning to `CCOc1ccc(S(=O)(=O)Nc2ccc[nH]c2=O)cc1`, the IC50 is > 50 µM (inactive). With `CCOc1ccccc1C(=O)NCC(=O)OC(C(=O)c1c[nH]c2ccccc12)c1ccccc1` (stereo unspecified) the figure was > 50 µM (inactive).

For `O=C(NC1CCCCC1)c1cc2c(cn1)[nH]c1ccccc12`, the IC50 was 2.51 µM. Then `CCOC(=O)c1cnc(C(F)(F)F)nc1Sc1n[nH]c(-c2cccs2)n1`, with > 50 µM (inactive); and `Cc1ccc(CNC(=O)CCCn2c(=O)c3sccc3n(CC(=O)OCc3ccccc3)c2=O)cc1`, with 2.15 µM; and `O=c1c(Nc2cccc(F)c2)nc2ccncc2n1Cc1ccccc1`, with 26 µM. With `O=C(OCCCN1C(=O)c2cccc3c(N4CCCCC4)ccc(c23)C1=O)c1ccccn1` the figure was > 50 µM (inactive). With `O=c1c2ccccc2c(-c2nc(-c3ccncc3)no2)cn1-c1ccccc1` the figure was 2.56 µM. On to `N#Cc1ccccc1Cn1c(=O)n(CCCCC(=O)NCc2ccco2)c(=O)c2ccccc21`, for which the IC50 is 36.6 µM.

As for `Cc1c(-c2nn3c(-c4ccco4)nnc3s2)cccc1[N+](=O)[O-]`, the IC50 was 2.49 µM.

Take `Cc1ccc(Cn2cc(-c3noc(-c4ccc[nH]4)n3)nn2)cc1`: the IC50 was 16.2 µM. In the case of `CC(CCc1ccccc1)NC(=O)C(=O)c1cn(CC(=O)N2CCOCC2)c2ccccc12` (stereo unspecified), the IC50 was > 50 µM (inactive). Then `O=C(Nc1ccccc1)c1cn2c3c(cccc3c1=O)CC2`, with 31.9 µM; and `Cc1noc(C)c1CN1CC[C@H]2O[C@H](C(=O)NCc3ccco3)CC[C@H]21`, with > 50 µM (inactive); and `CNC(=O)C1CN(C(=O)c2ccc(OC)cc2)CC12CCCC2` (stereo unspecified), with > 50 µM (inactive). With `CC(=O)c1sc(NC(=O)/C=C/c2ccccc2)nc1-c1ccccc1` the figure was 18.7 µM; with `O=C(Nc1ccc(Oc2cccc3cccnc23)cc1)c1cccs1`, 0.531 µM. With `O=c1[nH]c(C2CCN(S(=O)(=O)c3ccc(S(=O)(=O)NC4CCCCC4)cc3)CC2)nc2c1nnn2Cc1c(F)cccc1Cl` the figure was 17 µM; with `O=C(CNc1nc(Nc2ccccc2F)nc(Nc2ccccc2F)n1)Nc1ccccc1`, 27 µM; with `Cn1c(=O)/c(=C/c2ccccc2)[nH]c(=O)/c1=C/c1ccccc1`, 10.2 µM. With `COc1ccc2cc1Oc1cc(ccc1OC)C(O)C13SSC4(C(=O)N1C)C(O)C1=COC=CC(OC2=O)C1N4C3=O` (stereo unspecified), the IC50 is > 50 µM (inactive). With `Cc1ccc2[nH]c(=O)c(CN(Cc3cccnc3)C(=O)c3cccc(Cl)c3)cc2c1` the figure was > 50 µM (inactive); with `O=C1C/C(=C\c2cccc(Cl)c2)Cc2ccccc21`, 13 µM; with `O=C(Cn1nc2ccc(C(=O)NCc3ccccc3)cn2c1=O)Nc1ccc2c(c1)OCO2`, 33.6 µM. Then `COc1cc(O)c2c(c1)C1=CC(=O)C(O)=C[C@]1(C)OC2=O`, with 30.1 µM. With `CCN1CCN(C(=O)CCCN(c2ccccc2)S(C)(=O)=O)CC1` the figure was > 50 µM (inactive); with `COc1ccc(NC(=O)CSc2oc(-c3ccc(C)cc3)nc2S(=O)(=O)c2ccc(Br)cc2)c(OC)c1`, > 50 µM (inactive); with `Cc1ccc(NC(=O)c2sc(=S)n(CCc3ccccc3)c2N)cc1`, 9.8 µM. Consider `Cc1cc(C)c2nc3c(cc2c1)CN(Cc1ccco1)C(=O)O3`, for which the IC50 is > 50 µM (inactive). With `CC(=O)c1ccc(NC(=O)c2ccc(N3CCCCS3(=O)=O)cc2Cl)cc1` the figure was 26.6 µM.

On to `COc1ccc(OC)c(NC(=O)c2cc(Cl)ccc2OC)c1`, for which the IC50 is 1.66 µM. With `O=S1(=O)CCN(Cc2c(F)cccc2F)c2c(F)nc(N3CCOCC3)c(F)c21` the figure was > 50 µM (inactive).

`Cc1ccc(NC(=O)Cn2cc(S(=O)(=O)N3CCCC3)ccc2=O)cc1`: the IC50 is 17.2 µM. Then `Cc1sc(NC(=O)CNc2ccccc2)nc1-c1ccc2c(c1)CCN2C(=O)C(C)C`, with > 50 µM (inactive); and `CCN(CC)c1cc(C)c2cc(NC(=O)c3ccncc3)ccc2n1`, with 5.88 µM. Then `CC(=O)Nc1ccc(-n2cnc(C(=O)NCc3ccc(C)cc3)c2)nc1`, with 19.1 µM; and `FC(F)(F)c1cccc(Nc2nnc(-c3cccnc3)s2)c1`, with 12.1 µM; and `CSc1cccc(NC(=O)COc2cccc3ccccc23)c1`, with 2.57 µM.

Consider `Cc1ccc(C(=O)N2CCCC3(C2)Nc2cccnc2NC3=NC2CCCC2)s1` (stereo unspecified), for which the IC50 is > 50 µM (inactive). With `O=C1c2ccccc2NC2(C(=O)Nc3ccc(Br)cc32)N1c1ccccc1` (stereo unspecified) the figure was 3.31 µM; with `COC(=O)c1ccc(Cn2cnc3ccc(F)cc3c2=O)o1`, 3.97 µM. With `O=C(NCc1ccccc1Cl)c1ccc2cn[nH]c2c1` the figure was 10.1 µM; with `CCn1cc2c(n1)c(=O)n(Cc1ccccc1)c(=O)n2CC(=O)Nc1ccc(OC)cc1`, 10.5 µM. For the compound `CCn1ccc2c(cc(C(=O)Nc3ccccc3F)n2C)c1=O`, the IC50 was 15.2 µM. Then `COc1ccc(C(=O)Nc2ccc(S(=O)(=O)N3CCCCC3)cc2)cc1`, with 17.4 µM; and `CCOC(=O)c1cccc(NC(=O)Nc2cccn3nc(C)nc23)c1`, with 0.766 µM.

Consider `COc1ccc(NC(=O)c2ccc(-n3nnnc3SC)cc2)cc1Cl`, for which the IC50 was 31.1 µM. `COc1ccc(CNc2nn3c(-c4cncc(OC)c4)cnc3s2)cc1`: the IC50 is 2.61 µM. Then `O=C(NCc1ccc(Cl)cc1)c1ccc(N2CCCS2(=O)=O)cc1`, with > 50 µM (inactive).

On to `CCCCN1CC(C(=O)Nc2ccc(C(=O)Nc3ccc(Cl)cc3)cc2)CC1=O` (stereo unspecified), for which the IC50 is 10.5 µM. With `CC1=C(c2ccc(F)cc2)S(=O)(=O)N=C1Nc1ccc(Cl)cc1` the figure was 28.1 µM; with `Cc1nc(C(=O)Nc2cccc(Cl)c2Cl)nn1-c1cc(Cl)cc(Cl)c1`, 0.163 µM; with `CCN(CC)C(=O)c1sc(NC(=O)/C=C/c2c(F)cccc2Cl)c(C#N)c1C`, 2.93 µM. Regarding `Cn1cc(-c2noc(Cc3cccc(C(F)(F)F)c3)n2)ccc1=O`, the IC50 was 12.2 µM. For the compound `COc1cc(C)cc2c1C(=O)c1c(cc(O)c(Cl)c1O)C2=O`, the IC50 is 1.48 µM. Consider `O=c1c2cnc3nc(-c4cccnc4)nn3c2ccn1CCc1ccccc1`, for which the IC50 was > 50 µM (inactive).

Take `COc1cccc(NC(=O)CCc2c(C)nn(-c3cc(N4CCCCC4)ncn3)c2C)c1`: the IC50 is 7.17 µM. Then `O=C(Nc1cc(Cl)ccc1-n1cncn1)c1ccc(S(=O)(=O)N2CCCC2)cc1`, with > 50 µM (inactive).

Take `COc1ccc(C2CC(=O)Nc3ccc4ccccc4c32)c(OC)c1OC` (stereo unspecified): the IC50 is 47.8 µM. In the case of `CCn1ccc2c(cc(C(=O)Nc3cccc(OC)c3)n2C)c1=O`, the IC50 is 2.83 µM. With `CC1=C(Cn2c3cccc(=O)c-3nc3ccccc32)CCC(C)(C)C1` the figure was 2.02 µM.

`COc1ccc(NC(=O)Cn2c(CS(=O)(=O)c3ccc(C)cc3)nc3ccccc32)cc1`: the IC50 was 12.4 µM. In the case of `C=C1CCC2[C@](C)(CCC[C@]2(C)C(=O)OC)[C@H]1CCc1ccoc1/C=C/C(=O)O` (stereo partly specified), the IC50 is 29.1 µM. As for `Cc1sc2ncnc(OCc3ccc(F)cc3Cl)c2c1C`, the IC50 was 0.436 µM. Take `COc1ccc(CCNC(=O)c2cn(-c3ccc(F)cc3)nn2)cc1OC`: the IC50 is 20.8 µM. For the compound `COc1cccc2c1C(=O)c1ccc3c(c1C2=O)C(=O)CC(C)(O)C3` (stereo unspecified), the IC50 was > 50 µM (inactive).

As to `Cc1cc2c(cc1C)NC(CC(=O)Nc1ccc(O)cc1)C(=O)N2` (stereo unspecified), the IC50 is 25 µM. With `CN1CCN(c2ncnc3c2oc2ccc(Cl)cc23)CC1` the figure was > 50 µM (inactive); with `O=[N+]([O-])c1ccc2c(c1)nc1n2CCN(Cc2ccco2)C1`, > 50 µM (inactive). Then `O=c1sc2ccccc2c(=O)n1Cc1cccc(C(F)(F)F)c1`, with 1.09 µM; and `COc1cccc(/C=C/C(=O)Nc2ccc(C)c(Cl)c2)c1`, with 5.79 µM.

The record behind these values is PubChem BioAssay AID1645866 (Buhrlage Lab, Dana-Farber Cancer Institute and Novartis …, 2021).
